Data published in PubChem BioAssay AID248 (DTP/NCI, 2004).
Values joined by “and” are separate entries in the source; they are usually repeats but may differ in a detail not shown here. Equal entries are not always repeated. Inconclusive results and toxic doses are left out. Rule as the data show it: active = T/C of 150% or more; inactive = T/C below 125%.

Test system: L1210 leukemia ip in BDF1 mice, survival T/C
Assay: NCI In Vivo Anticancer Drug Screen. Data for tumor model L1210 Leukemia (intraperitoneal) in B6D2F1 (BDF1) mice
Settings: endpoint: mean survival time, higher = longer survival
In short: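 Mice bearing the transplanted tumor received compound or vehicle. Survival of the treated group was divided by that of the vehicle-treated control group to give the ratio.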

[1] = dose: 100.0 mg/kg/injection, schedule: Q01DX009 (ip), vehicle: saline with Tween-80
[2] = dose: 100.0 mg/kg/injection, schedule: Q01DX009 (ip), vehicle: saline
[3] = dose: 200.0 mg/kg/injection, schedule: Q01DX009 (ip), vehicle: saline with Tween-80
[4] = dose: 200.0 mg/kg/injection, schedule: Q01DX009 (ip), vehicle: saline
[5] = dose: 400.0 mg/kg/injection, schedule: Q01DX009 (ip), vehicle: saline with Tween-80
[6] = dose: 100.0 mg/kg/injection, schedule: Q04DX003 (ip), vehicle: Klucel (hydroxypropylcellulose) (HPC)
[7] = dose: 200.0 mg/kg/injection, schedule: Q04DX003 (ip), vehicle: Klucel (hydroxypropylcellulose) (HPC)
[8] = dose: 400.0 mg/kg/injection, schedule: Q04DX003 (ip), vehicle: Klucel (hydroxypropylcellulose) (HPC)
[9] = dose: 50.0 mg/kg/injection, schedule: Q01DX009 (ip), vehicle: saline
[10] = dose: 50.0 mg/kg/injection, schedule: Q04DX003 (ip), vehicle: Klucel (hydroxypropylcellulose) (HPC)
[11] = dose: 100.0 mg/kg/injection, schedule: Q01DX009 (ip), vehicle: Klucel (hydroxypropylcellulose) (HPC)
[12] = dose: 200.0 mg/kg/injection, schedule: Q01DX009 (ip), vehicle: Klucel (hydroxypropylcellulose) (HPC)
[13] = dose: 100.0 mg/kg/injection, schedule: Q04DX002 (ip), vehicle: Klucel (hydroxypropylcellulose) (HPC)
[14] = dose: 200.0 mg/kg/injection, schedule: Q04DX002 (ip), vehicle: Klucel (hydroxypropylcellulose) (HPC)
[15] = dose: 400.0 mg/kg/injection, schedule: Q01DX009 (ip), vehicle: Klucel (hydroxypropylcellulose) (HPC)

Measured: T/C

O=C(Nc1cccc(-c2nc3ccccc3[nH]2)c1)c1ccc(C(=O)Nc2cccc(-c3nc4ccccc4[nH]3)c2)cc1
inactive: dose: 15.0 mg/kg/injection, schedule: Q01DX Z (ip), vehicle: carboxymethylcellulose (CMC) 91 % of control | dose: 30.0 mg/kg/injection, schedule: Q01DX Z (ip), vehicle: carboxymethylcellulose (CMC) 90 % of control | dose: 60.0 mg/kg/injection, schedule: Q01DX Z (ip), vehicle: carboxymethylcellulose (CMC) 87 % of control | dose: 120.0 mg/kg/injection, schedule: Q01DX Z (ip), vehicle: carboxymethylcellulose (CMC) 86 % of control | dose: 125.0 mg/kg/injection, schedule: Q01DX Z (ip), vehicle: water 95 % of control | dose: 250.0 mg/kg/injection, schedule: Q01DX Z (ip), vehicle: water 96 % of control | dose: 500.0 mg/kg/injection, schedule: Q01DX Z (ip), vehicle: water 112 % of control

COC(=O)CC(OC)OC
inactive: [1] 107 % of control | [2] 103 % of control | dose: 100.0 mg/kg/injection, schedule: Q04DX003 (ip), vehicle: saline with Tween-80 89 % of control | [3] 100 % of control | [4] 103 % of control | dose: 200.0 mg/kg/injection, schedule: Q04DX003 (ip), vehicle: saline with Tween-80 102 % of control | [5] 97 % of control | dose: 400.0 mg/kg/injection, schedule: Q01DX009 (ip), vehicle: saline 105 % of control | dose: 400.0 mg/kg/injection, schedule: Q04DX003 (ip), vehicle: saline with Tween-80 101 % of control

Cc1ccc(OCCOc2ccc(C(=O)O)cc2)cc1
inactive: [6] 95 % of control | [7] 101 % of control | [8] 101 % of control

CCOCN(C)C
inactive: dose: 25.0 mg/kg/injection, schedule: Q01DX001 (ip), vehicle: saline 103 % of control | dose: 25.0 mg/kg/injection, schedule: Q01DX009 (ip), vehicle: saline 103 % of control | dose: 25.0 mg/kg/injection, schedule: Q04DX003 (ip), vehicle: saline 100 % of control | dose: 44.0 mg/kg/injection, schedule: Q01DX009 (ip), vehicle: saline 110 % of control | dose: 50.0 mg/kg/injection, schedule: Q01DX001 (ip), vehicle: saline 94 % of control | [9] 105 % of control | dose: 50.0 mg/kg/injection, schedule: Q04DX003 (ip), vehicle: saline 100 % of control | dose: 66.0 mg/kg/injection, schedule: Q01DX009 (ip), vehicle: saline 103 % of control | dose: 100.0 mg/kg/injection, schedule: Q01DX001 (ip), vehicle: saline 97 % of control and 107 % of control | [2] 97 % of control | dose: 100.0 mg/kg/injection, schedule: Q04DX003 (ip), vehicle: saline 105 % of control

Cc1ccc(Nc2nc(N)nc(N)c2N=O)cc1
inactive: dose: 25.0 mg/kg/injection, schedule: Q01DX Z (ip), vehicle: methylcellulose (MC) 101 % of control | dose: 50.0 mg/kg/injection, schedule: Q01DX Z (ip), vehicle: methylcellulose (MC) 90 % of control

C=[CH][Sn]([c]1ccccc1)([c]1ccccc1)[c]1ccccc1
inactive: [9] 92 % of control and 104 % of control and 109 % of control | [2] 106 % of control and 114 % of control and 89 % of control | [4] 96 % of control and 101 % of control (2×)

O=C(O)/C(=C\c1ccc(Cl)cc1)c1cccc2ccccc12
inactive: [10] 92 % of control | [11] 98 % of control | [12] 100 % of control | [7] 87 % of control

C#CC(O)(c1ccccc1)c1ccc(N2CCOCC2)cc1 (stereo not given)
inactive: [6] 96 % of control | [7] 96 % of control | [8] 96 % of control

COC(=O)C1C2CC3c4[nH]c5cc(OC)ccc5c4CCN3CC2CC(OC2CCCCO2)C1OC (stereo not given)
inactive: dose: 25.0 mg/kg/injection, schedule: Q04DX003 (ip), vehicle: Klucel (hydroxypropylcellulose) (HPC) 98 % of control | [10] 100 % of control | [6] 117 % of control

Cc1ncc2n1C=CN(C(=O)c1ccc([N+](=O)[O-])cc1)C2O (stereo not given)
inactive: dose: 100.0 mg/kg/injection, schedule: Q01DX009 (ip), vehicle: water 98 % of control | dose: 200.0 mg/kg/injection, schedule: Q01DX009 (ip), vehicle: water 98 % of control | dose: 400.0 mg/kg/injection, schedule: Q01DX009 (ip), vehicle: water 93 % of control

COc1c(NC(=O)COc2ccc(Cl)cc2)cccc1[N+](=O)[O-]
inactive: [1] 96 % of control | [3] 100 % of control | [5] 94 % of control

N=c1sc2ccccc2n1CC(=O)O
inactive: dose: 25.0 mg/kg/injection, schedule: Q01DX001 (ip), vehicle: saline with Tween-80 92 % of control | dose: 50.0 mg/kg/injection, schedule: Q01DX001 (ip), vehicle: saline with Tween-80 96 % of control | dose: 100.0 mg/kg/injection, schedule: Q01DX001 (ip), vehicle: saline with Tween-80 94 % of control

Nc1nc(N)nc(-c2ccccc2N=NN2CCOCC2)n1
inactive: [6] 103 % of control | [7] 101 % of control | [8] 101 % of control

CCO/C=C1/C(=O)N(C)c2c1c(=O)n(C)c(=O)n2C
inactive: [13] 106 % of control | [14] 109 % of control

COC(=O)Nc1ccc2nc(NC(=O)OC)[nH]c2c1
inactive: dose: 20.0 mg/kg/injection, schedule: Q01DX009 (ip), vehicle: other 97 % of control | dose: 40.0 mg/kg/injection, schedule: Q01DX009 (ip), vehicle: other 101 % of control | dose: 80.0 mg/kg/injection, schedule: Q01DX009 (ip), vehicle: other 104 % of control

NC(=O)C1(N2CCCC2)CCN(Cc2ccccc2)CC1
inactive: dose: 50.0 mg/kg/injection, schedule: Q01DX009 (ip), vehicle: Klucel (hydroxypropylcellulose) (HPC) 94 % of control | [11] 97 % of control | [6] 96 % of control | [12] 90 % of control | [7] 93 % of control

CCCCCCCCCCCCCCCCCC(=O)N/N=C/c1ccc(Cl)cc1
inactive: [11] 101 % of control and 88 % of control | [12] 102 % of control | [15] 98 % of control and 92 % of control

CCCCCCCCC(N)C(=O)O (stereo not given)
inactive: dose: 25.0 mg/kg/injection, schedule: Q04DX002 (ip), vehicle: gum acacia 107 % of control | dose: 50.0 mg/kg/injection, schedule: Q04DX002 (ip), vehicle: Klucel (hydroxypropylcellulose) (HPC) 91 % of control | dose: 50.0 mg/kg/injection, schedule: Q04DX002 (ip), vehicle: gum acacia 95 % of control | [13] 98 % of control | dose: 100.0 mg/kg/injection, schedule: Q04DX002 (ip), vehicle: gum acacia 114 % of control | [14] 95 % of control

COc1ccc(Cl)cc1NC(=O)Oc1ccc(C=O)cc1OC
inactive: [11] 102 % of control and 114 % of control | [12] 98 % of control and 104 % of control | [15] 104 % of control and 109 % of control

CN(C)C(=O)NCc1cccs1
inactive: dose: 100.0 mg/kg/injection, schedule: Q04DX003 (ip), vehicle: carboxymethylcellulose (CMC) 97 % of control | dose: 200.0 mg/kg/injection, schedule: Q04DX003 (ip), vehicle: carboxymethylcellulose (CMC) 93 % of control | dose: 400.0 mg/kg/injection, schedule: Q04DX003 (ip), vehicle: carboxymethylcellulose (CMC) 104 % of control

CC(Cl)CN1c2ccccc2Sc2ccc(Cl)cc21 (stereo not given)
inactive: dose: 100.0 mg/kg/injection, schedule: Q01DX001 (ip), vehicle: carboxymethylcellulose (CMC) 97 % of control | dose: 200.0 mg/kg/injection, schedule: Q01DX001 (ip), vehicle: carboxymethylcellulose (CMC) 95 % of control | dose: 400.0 mg/kg/injection, schedule: Q01DX001 (ip), vehicle: carboxymethylcellulose (CMC) 92 % of control
